The results in this text go back to EPA's ToxValDB 9.5 (doi:10.2903/j.efsa.2010.1645).

In brackets after ≈: the same amount, converted by molar mass.

In one data set the test system is Oncorhynchus mykiss. The settings on record: acute; duration: 96 hours; mortality.
The subject of the next data set is Pimephales promelas. The settings on record: chronic/long-term; duration: 35 days; growth.
In a further data set the test system is Bibionidae. The settings on record: chronic/long-term; duration: 28 days; development.
Another data set has as its system Apis mellifera. Particulars: acute, duration: 48 hours, mortality.
The test system of another data set is Glycine sp. Particulars: chronic/long-term; seedling emergence.
The subject of a further data set is Folsomia candida. The settings on record: chronic/long-term; duration: 28 days; reproduction.
The test system of the next data set is Daphnia magna. Particulars: chronic/long-term; duration: 21 days; reproduction.
Another data set has as its system Typhlodromus pyri. Description: LR50; higher = less toxic. Particulars: acute; duration: 7 days; mortality.

Consider `CC(C)[C@@H](Nc1ccc(C(F)(F)F)cc1Cl)C(=O)OC(C#N)c1cccc(Oc2ccccc2)c1` (stereo not given in full) [tau-Fluvalinate], for which the NOAEL – broadly, the highest dose or exposure tested at which no adverse effect was seen – in the data set with Rattus norvegicus (chronic, duration: 2 years, body weight) worked out at 0.5 mg/kg-day; in the data set with Rattus norvegicus (developmental, development) it was 5 mg/kg-day; in the data set on Rattus norvegicus (short-term, duration: 28 days, clinical signs), 6 mg/kg-day; in the data set on Rattus norvegicus (subchronic, duration: 90 days, oral, diet, body weight) it was 1 mg/kg-day. For the same compound, the LC50 is 7.94 ng/mL (≈ 0.0158 µM) with Oncorhynchus mykiss and more than 1000 mg/kg with Tagia sp. (acute, duration: 14 days, mortality). For the same compound, the NOEC is more than 2.88 mg/kg in the data set on Tagia sp. (chronic/long-term, duration: 56 days, reproduction); 6.4e-05 mg/L in the data set on Pimephales promelas; 0.00024 mg/L with Bibionidae; less than 6.25 g/ha in the data set with Glycine sp.; 9.6 mg/kg with Folsomia candida; 2.1e-05 mg/L in the data set on Daphnia magna. For the same compound, the LD50 is 12 µg/piece with Apis mellifera (dermal) and 12.6 µg/piece in the data set on Apis mellifera (oral, unspecified). This compound also came in with an LR50 in the data set with Typhlodromus pyri of 0.049 g/ha.
